# Results: patent publication US8729076B2, “Secondary 8-hydroxyquinoline-7-carboxamide derivatives” (Polichem SA, priority 2009, dated 2014)
# Where two headings read alike, the source gives them in different places.
# What was measured:
# Assay type in all cases: cell-based
# [1] = system: Aspergillus Niger (ATCC 16404); test: Broth micro-dilution antifungal susceptibility test (MIC); conditions: ATCC16404, 120 h, 35° C.
# Method: (§1) Trichophyton Rubrum (ATCC 28188, PBI International); Trichophyton Mentagrophytes (ATCC 9533, PBI International); Aspergillus Niger (ATCC 16404, PBI International); Scopulariopsis Brevicaulis (ATCC 36840, DSMZ); Candida Albicans (ATCC 90028, PBI International); Candida Glabrata (ATCC 90030, DSMZ).
# (§2) Compounds' minimal inhibition concentration (MIC) was determined through broth micro-dilution susceptibility test using a method developed in agreement with the National Committee for Clinical Laboratory Standards (NCCLS) (National Committee for Clinical Laboratory Standards. Reference Method for Broth Dilution Antifungal Susceptibility Testing of Yeasts; Approved standard-Second Edition M27-A2. 2002; Vol. 22, No. 15) (National Committee for Clinical Laboratory Standards. Reference Method for Broth Dilution Antifungal Susceptibility Testing of Filamentous Fungi; Approved standard M38-A. 2002; Vol. 22, No. 16).
# (§3) Assays were carried out in RPMI 1640 with L-glutamine medium buffered to pH 7 with 0.165M 3-(N-morpholino)propanesulfonic acid (MOPS) and 10M NaOH and supplemented with 18 g glucose/liter. The tests were performed using 96 well sterile plates (inoculum size of 1×10^5 CFU/mL). Compounds stock solutions were prepared at 12.8 mg/mL in 100% DMSO. A series of twofold dilutions were prepared in plate using RPMI 1640. Final concentrations ranged from 0.125 to 128 μg/mL at 1% DMSO.
# [2] = system: Candida Albicans (ATCC 90028); test: as above; conditions: 35° C.
# Method: as §1, §2, §3
# [3] = system: Candida Glabrata (ATCC 90030); test: as above; conditions: Nakaseomyces glabratus, ATCC90030, 48 h, 35° C.
# Method: as §1, §2, §3
# [4] = system: Scopulariopsis Brevicaulis (ATCC 36840); test: as above; conditions: ATCC36840, 120 h, 35° C.
# Method: as §1, §2, §3
# [5] = system: Trichophyton Mentagrophytes (ATCC 9533); test: as above; conditions: ATCC9533, 120 h, 35° C.
# Method: as §1, §2, §3
# [6] = system: Trichophyton Rubrum (ATCC 28188); test: as above; conditions: ATCC28188, 120 h, 35° C.
# Method: as §1, §2, §3
# [7] = system: Candida Glabrata (ATCC 90030); test: Assessment of the mechanism of action: antifungal activity with or without 100 μM Fe3+; conditions: 100 μM FeCl3 in the test medium; OD at 540 nm
# Method: To verify if the compounds mechanism of action is the chelation of iron ions, the MIC determination with Candida glabrata (ATCC 90030) strain was performed by the addition of excessive iron ions (100 μM FeCl3) in the test medium. The viability of cells exposed to drugs, with or without the metal ion Fe^3+, was evaluated by the OD measure at 540 nm.
# Compounds described in Example 2, E8 and NiK-29298 were evaluated in presence and in absence of 100 μM (100 micromoles) Fe^3+.
# In all figures, the lines and dots represent the percent inhibition of the fungal growth (in ordinate) by adding different concentrations of antifungal agents (in abscissa). Blue lines and dots are the experiments performed without iron supplementation, while red lines and dots represent the results of the experiments performed in presence of 100 μM Fe^3+. […] Conversely, Fe^3+ has no effect on amphotericin, an antifungal agent known in the art to have a mechanism of action different from that of ciclopirox.
# [8] = system: 6 strains tested, including yeasts, dermatophytes and molds; test: Antifungal spectrum over the 6 strains tested (MIC test); conditions: 6 strains: yeasts
# Method: as §1, §2, §3
# [9] = geometric means of two single experiments, five days, Table 3
# [10] = ATCC90028, geometric means of two single experiments, 48 h, Table 3
# [11] = geometric means of two single experiments, Table 3
# [12] = geometric means of two single experiments, five days, Table 3, read-out: MIC Tricophyton Mentagrophytes ATCC 9533
# [13] = geometric means of two single experiments, five days, Table 3, read-out: MIC Trycophyton Rubrum ATCC 28188
# [14] = comparison compounds, Table 5, five days
# [15] = ATCC90028, comparison compounds, Table 5, 48 h
# [16] = comparison compounds, Table 5, five days, read-out: MIC Tricophyton Mentagrophytes ATCC 9533
# [17] = comparison compounds, Table 5, five days, read-out: MIC Trycophyton Rubrum ATCC 28188
"MIC [1, 9] [µg/mL]","MIC [2, 10] [µg/mL]","MIC [3, 11] [µg/mL]","MIC [4, 9] [µg/mL]","MIC [5, 12] [µg/mL]","MIC [6, 13] [µg/mL]","MIC [1, 14] [µg/mL]","MIC [2, 15] [µg/mL]","MIC ([3]; comparison compounds, Table 5) [µg/mL]","MIC [4, 14] [µg/mL]","MIC [5, 16] [µg/mL]","MIC [6, 17] [µg/mL]",Structure (SMILES),Effect of Fe3+ on antifungal activity [7],Spectrum of antifungal activity on the strains tested [8]
1,2,2,1,0.5,0.25,,,,,,,"O=C(Nc1ccc2c(c1)OCCO2)c1ccc2cccnc2c1O [Example 9, 8-Hydroxy-N-(2,3-dihydrobenzo[b][1,4]dioxin-6-yl)quinoline-7-carboxamide]",,
0.5,4,2,4,0.5,1,,,,,,,"O=C(NCc1ccc(N2CCOCC2)cc1)c1ccc2cccnc2c1O [Example 10, 8-Hydroxy-N-(4-morpholinobenzyl)quinoline-7-carboxamide]",,
1,2,2,1,2.83,1.41,,,,,,,"Cc1csc(CNC(=O)c2ccc3cccnc3c2O)n1 [Example 12, 8-Hydroxy-N-((4-methylthiazol-2-yl)methyl)quinoline-7-carboxamide]",,
0.5,2,2.83,1,1,2,,,,,,,"O=C(NCc1nc2ccccc2s1)c1ccc2cccnc2c1O [Example 14, 8-Hydroxy-N-(benzo[d]thiazol-2-ylmethyl)quinoline-7-carboxamide]",,
,,,,,,2 to 128,1.41,1,> 128,75,> 128,"O=C(NCc1ccc(OCc2ccccc2)cc1)c1ccc2ncccc2c1 [Example E8, reference compound]",not inhibited,active only on yeasts
,,,,,,64 to 128,2,5.65,> 128,128,> 128,"O=C(NCc1ccccc1)c1ccc2ncccc2c1 [NiK-29298, reference compound]",not inhibited,active only on yeasts
1,2,2,2.83,4,1,,,,,,,"Cc1cc(CNC(=O)c2ccc3cccnc3c2O)no1 [Example 11, 8-Hydroxy-N-((5-methylisoxazol-3-yl)methyl)quinoline-7-carboxamide]",,

# Further lines, the molecule ahead of its results:
Structure (SMILES),"MIC [1, 9] [µg/mL]","MIC [2, 10] [µg/mL]","MIC [3, 11] [µg/mL]","MIC [4, 9] [µg/mL]","MIC [5, 12] [µg/mL]","MIC [6, 13] [µg/mL]","MIC [1, 14] [µg/mL]","MIC [2, 15] [µg/mL]","MIC ([3]; comparison compounds, Table 5) [µg/mL]","MIC [4, 14] [µg/mL]","MIC [5, 16] [µg/mL]","MIC [6, 17] [µg/mL]",Effect of Fe3+ on antifungal activity [7],Spectrum of antifungal activity on the strains tested [8]
"O=C(NCc1ccc(Br)cc1)c1ccc2cccnc2c1O [Example 2, 8-Hydroxy-N-(4-bromobenzyl)quinoline-7-carboxamide]",0.71,1.41,1.41,1.41,1,1.41,,,,,,,,
"O=C(Nc1ccc(-n2cncn2)cc1)c1ccc2cccnc2c1O [Example 7, 8-Hydroxy-N-(4-(1H-1,2,4-triazol-1-yl)phenyl)quinoline-7-carboxamide]",1,2,2.83,1.26,2,2.52,,,,,,,,
"CN(C)c1ccc(CNC(=O)c2ccc3cccnc3c2O)cc1 [Example 4, 8-Hydroxy-N-(4-(dimethylamino)benzyl)quinoline-7-carboxamide]",0.5,2.83,1.41,1,0.71,1,,,,,,,,
C[C@@H]1[C@H](O)[C@@H](C)/C=C/C=C/C=C/C=C/C=C/C=C/C=C/[C@H](O[C@@H]2O[C@H](C)[C@@H](O)[C@H](N)[C@@H]2O)C[C@@H]2O[C@](O)(C[C@@H](O)C[C@@H](O)[C@H](O)CC[C@@H](O)C[C@@H](O)CC(=O)O[C@H]1C)C[C@H](O)[C@H]2C(=O)O [amphotericin],,,,,,,,,,,,,no effect,
Cc1cc(C2CCCCC2)n(O)c(=O)c1 [ciclopirox],,,,,,,,,,,,,completely inhibited,
"O=C(NCc1ccccn1)c1ccc2cccnc2c1O [Example 1, 8-Hydroxy-N-(pyridin-2-ylmethyl)quinoline-7-carboxamide]",0.5,4,4,1,2,2,,,,,,,,
